What was measured:
[1] = target: EGFR^L858R/T790M/C^797S (Homo sapiens, UniProt P00533, C797S/L858R/T790M); assay: in vitro kinase assay (HTRF KinEASE-TK kit), LTC; type: biochemical; conditions: kinase inhibition
Description: (§1) Assays using an in vitro kinase assay kit (HTRF KinEASE-TK kit) can be used to study the inhibitory activity of compounds described herein with respect to EGFR mutants such as EGFR^L858R, EGFR^L58R/T790M, and EGFR^L858R/T790M/C^797S.

[2] = target: Ba/F3 EGFR-Del19/T790M (Homo sapiens, UniProt P00533, T790M, cells depend on it, form not given); assay: Ba/F3 viability assay (CellTiter-Glo), DT; type: cell-based; conditions: anti-proliferation, read-out: BaF3 DT IC50
Method in brief: (§2)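 Proliferation inhibition, viability-based; mutant EGFR lines plus parental control.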

[3] = tested on: Ba/F3 Parental; assay: Ba/F3 viability assay (CellTiter-Glo), parental; type: cell-based; conditions: Mus musculus, BaF3, anti-proliferation
Method in brief: as §2

[4] = target: Ba/F3 EGFR-Del19/T790M/C797S (Homo sapiens, UniProt P00533, T790M/C797S, cells depend on it, form not given); assay: Ba/F3 viability assay (CellTiter-Glo), DTC; type: cell-based; conditions: anti-proliferation, read-out: BaF3 DTC IC50
Method in brief: as §2

[5] = target: EGFR^L58R/T790M (Homo sapiens, UniProt P00533, L858R/T790M); assay: in vitro kinase assay (HTRF KinEASE-TK kit), LT; type: biochemical; conditions: kinase inhibition
Description: as §1

[6] = target: EGFR^L858R (Homo sapiens, UniProt P00533, L858R); assay: in vitro kinase assay (HTRF KinEASE-TK kit), L; type: biochemical; conditions: kinase inhibition
Description: as §1

[7] = target: Ba/F3 EGFR-Del19/C797S (Homo sapiens, UniProt P00533, C797S, cells depend on it, form not given); assay: Ba/F3 viability assay (CellTiter-Glo), DC; type: cell-based; conditions: anti-proliferation, read-out: BaF3 DC IC50
Method in brief: as §2

Chain of Ba/F3 EGFR-Del19/T790M/C797S (P00533 with tags, fused parts or gaps DEL746-750/T790M/C797S, form open): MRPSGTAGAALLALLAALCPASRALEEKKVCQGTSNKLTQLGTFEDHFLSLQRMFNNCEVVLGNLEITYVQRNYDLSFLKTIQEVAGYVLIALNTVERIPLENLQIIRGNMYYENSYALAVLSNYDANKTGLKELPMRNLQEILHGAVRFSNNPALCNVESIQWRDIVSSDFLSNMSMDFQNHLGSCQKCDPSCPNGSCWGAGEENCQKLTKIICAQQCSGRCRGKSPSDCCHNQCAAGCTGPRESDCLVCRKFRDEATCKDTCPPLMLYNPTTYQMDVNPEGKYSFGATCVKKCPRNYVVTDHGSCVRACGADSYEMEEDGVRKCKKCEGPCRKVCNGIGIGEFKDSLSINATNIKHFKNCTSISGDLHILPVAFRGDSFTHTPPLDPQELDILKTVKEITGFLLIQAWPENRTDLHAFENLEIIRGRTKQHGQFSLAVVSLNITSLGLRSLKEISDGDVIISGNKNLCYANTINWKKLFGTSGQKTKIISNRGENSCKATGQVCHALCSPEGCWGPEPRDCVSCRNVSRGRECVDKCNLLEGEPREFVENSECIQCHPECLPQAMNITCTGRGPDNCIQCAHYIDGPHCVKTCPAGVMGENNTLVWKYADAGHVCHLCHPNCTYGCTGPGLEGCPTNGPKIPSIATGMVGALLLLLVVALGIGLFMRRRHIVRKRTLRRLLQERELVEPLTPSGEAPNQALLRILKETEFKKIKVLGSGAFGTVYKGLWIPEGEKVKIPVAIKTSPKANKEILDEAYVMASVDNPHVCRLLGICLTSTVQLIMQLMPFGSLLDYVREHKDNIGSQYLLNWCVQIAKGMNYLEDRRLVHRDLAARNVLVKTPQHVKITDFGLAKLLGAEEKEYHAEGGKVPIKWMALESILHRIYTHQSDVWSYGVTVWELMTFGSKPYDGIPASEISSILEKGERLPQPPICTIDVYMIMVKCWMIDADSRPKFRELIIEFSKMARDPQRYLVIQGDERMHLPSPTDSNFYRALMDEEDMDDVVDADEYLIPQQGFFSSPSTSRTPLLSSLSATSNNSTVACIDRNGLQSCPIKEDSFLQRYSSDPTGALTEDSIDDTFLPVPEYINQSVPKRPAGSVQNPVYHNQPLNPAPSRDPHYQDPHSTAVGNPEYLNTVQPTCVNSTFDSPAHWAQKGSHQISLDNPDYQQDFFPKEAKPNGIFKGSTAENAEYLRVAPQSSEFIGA
Chain of Ba/F3 EGFR-Del19/C797S (P00533 with tags, fused parts or gaps DEL746-750/C797S, form open): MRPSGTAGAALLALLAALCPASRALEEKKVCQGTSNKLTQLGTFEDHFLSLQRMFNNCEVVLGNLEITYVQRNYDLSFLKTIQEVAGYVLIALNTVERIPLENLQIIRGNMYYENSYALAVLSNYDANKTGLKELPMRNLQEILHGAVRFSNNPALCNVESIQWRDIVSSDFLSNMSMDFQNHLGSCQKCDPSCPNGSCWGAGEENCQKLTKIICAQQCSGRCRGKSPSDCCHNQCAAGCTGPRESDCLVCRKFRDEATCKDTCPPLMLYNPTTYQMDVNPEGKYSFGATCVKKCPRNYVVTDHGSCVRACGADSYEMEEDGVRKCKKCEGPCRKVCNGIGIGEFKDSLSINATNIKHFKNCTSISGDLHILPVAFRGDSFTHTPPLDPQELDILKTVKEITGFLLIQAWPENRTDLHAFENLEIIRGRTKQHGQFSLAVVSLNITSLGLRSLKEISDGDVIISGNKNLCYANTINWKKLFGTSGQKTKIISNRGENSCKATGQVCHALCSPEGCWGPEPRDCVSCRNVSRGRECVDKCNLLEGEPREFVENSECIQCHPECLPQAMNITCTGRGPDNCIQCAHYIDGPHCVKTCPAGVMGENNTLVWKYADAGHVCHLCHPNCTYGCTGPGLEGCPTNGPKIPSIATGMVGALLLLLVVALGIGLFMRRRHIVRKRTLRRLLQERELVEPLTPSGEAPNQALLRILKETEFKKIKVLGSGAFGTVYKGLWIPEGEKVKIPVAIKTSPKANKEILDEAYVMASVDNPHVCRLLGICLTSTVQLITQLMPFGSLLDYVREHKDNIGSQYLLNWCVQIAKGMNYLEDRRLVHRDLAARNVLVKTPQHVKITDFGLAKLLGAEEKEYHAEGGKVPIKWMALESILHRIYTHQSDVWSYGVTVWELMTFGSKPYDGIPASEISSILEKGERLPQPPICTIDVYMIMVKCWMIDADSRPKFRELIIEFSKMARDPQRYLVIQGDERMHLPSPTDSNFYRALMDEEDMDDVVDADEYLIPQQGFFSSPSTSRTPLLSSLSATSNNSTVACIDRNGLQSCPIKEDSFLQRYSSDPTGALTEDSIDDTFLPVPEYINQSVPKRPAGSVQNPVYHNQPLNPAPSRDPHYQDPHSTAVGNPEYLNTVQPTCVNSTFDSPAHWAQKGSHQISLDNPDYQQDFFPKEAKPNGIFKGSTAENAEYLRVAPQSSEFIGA
Chain of EGFR^L858R (P00533 25-1210 L858R): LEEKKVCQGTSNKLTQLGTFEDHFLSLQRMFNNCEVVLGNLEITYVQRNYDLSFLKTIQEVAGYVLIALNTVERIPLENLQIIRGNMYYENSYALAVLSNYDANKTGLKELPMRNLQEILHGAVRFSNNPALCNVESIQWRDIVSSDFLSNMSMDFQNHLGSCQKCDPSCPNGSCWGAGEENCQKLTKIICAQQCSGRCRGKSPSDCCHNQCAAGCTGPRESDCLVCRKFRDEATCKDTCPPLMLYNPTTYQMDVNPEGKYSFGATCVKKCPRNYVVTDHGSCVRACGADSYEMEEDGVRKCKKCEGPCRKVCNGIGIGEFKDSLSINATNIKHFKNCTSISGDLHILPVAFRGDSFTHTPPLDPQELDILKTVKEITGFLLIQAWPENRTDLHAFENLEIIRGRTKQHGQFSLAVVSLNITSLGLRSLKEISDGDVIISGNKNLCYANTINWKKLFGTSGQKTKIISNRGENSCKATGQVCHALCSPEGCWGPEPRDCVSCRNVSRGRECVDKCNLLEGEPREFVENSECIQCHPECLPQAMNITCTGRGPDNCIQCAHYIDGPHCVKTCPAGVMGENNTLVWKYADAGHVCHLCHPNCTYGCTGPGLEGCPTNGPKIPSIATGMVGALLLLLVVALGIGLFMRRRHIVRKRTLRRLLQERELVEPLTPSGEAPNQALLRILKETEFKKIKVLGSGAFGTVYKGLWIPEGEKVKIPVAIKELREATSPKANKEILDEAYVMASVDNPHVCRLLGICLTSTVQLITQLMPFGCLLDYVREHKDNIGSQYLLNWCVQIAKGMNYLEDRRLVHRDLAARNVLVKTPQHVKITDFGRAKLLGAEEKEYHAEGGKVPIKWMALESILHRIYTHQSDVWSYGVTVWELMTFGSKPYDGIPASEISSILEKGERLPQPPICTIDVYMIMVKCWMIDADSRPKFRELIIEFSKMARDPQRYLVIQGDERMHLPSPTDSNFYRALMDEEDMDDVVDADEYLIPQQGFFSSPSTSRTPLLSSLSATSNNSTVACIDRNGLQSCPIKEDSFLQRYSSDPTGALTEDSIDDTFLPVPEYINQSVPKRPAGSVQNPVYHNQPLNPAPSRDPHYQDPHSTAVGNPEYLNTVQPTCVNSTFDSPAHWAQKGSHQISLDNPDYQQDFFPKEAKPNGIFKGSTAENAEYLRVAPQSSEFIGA
Chain of EGFR^L58R/T790M (P00533 25-1210 T790M/L858R): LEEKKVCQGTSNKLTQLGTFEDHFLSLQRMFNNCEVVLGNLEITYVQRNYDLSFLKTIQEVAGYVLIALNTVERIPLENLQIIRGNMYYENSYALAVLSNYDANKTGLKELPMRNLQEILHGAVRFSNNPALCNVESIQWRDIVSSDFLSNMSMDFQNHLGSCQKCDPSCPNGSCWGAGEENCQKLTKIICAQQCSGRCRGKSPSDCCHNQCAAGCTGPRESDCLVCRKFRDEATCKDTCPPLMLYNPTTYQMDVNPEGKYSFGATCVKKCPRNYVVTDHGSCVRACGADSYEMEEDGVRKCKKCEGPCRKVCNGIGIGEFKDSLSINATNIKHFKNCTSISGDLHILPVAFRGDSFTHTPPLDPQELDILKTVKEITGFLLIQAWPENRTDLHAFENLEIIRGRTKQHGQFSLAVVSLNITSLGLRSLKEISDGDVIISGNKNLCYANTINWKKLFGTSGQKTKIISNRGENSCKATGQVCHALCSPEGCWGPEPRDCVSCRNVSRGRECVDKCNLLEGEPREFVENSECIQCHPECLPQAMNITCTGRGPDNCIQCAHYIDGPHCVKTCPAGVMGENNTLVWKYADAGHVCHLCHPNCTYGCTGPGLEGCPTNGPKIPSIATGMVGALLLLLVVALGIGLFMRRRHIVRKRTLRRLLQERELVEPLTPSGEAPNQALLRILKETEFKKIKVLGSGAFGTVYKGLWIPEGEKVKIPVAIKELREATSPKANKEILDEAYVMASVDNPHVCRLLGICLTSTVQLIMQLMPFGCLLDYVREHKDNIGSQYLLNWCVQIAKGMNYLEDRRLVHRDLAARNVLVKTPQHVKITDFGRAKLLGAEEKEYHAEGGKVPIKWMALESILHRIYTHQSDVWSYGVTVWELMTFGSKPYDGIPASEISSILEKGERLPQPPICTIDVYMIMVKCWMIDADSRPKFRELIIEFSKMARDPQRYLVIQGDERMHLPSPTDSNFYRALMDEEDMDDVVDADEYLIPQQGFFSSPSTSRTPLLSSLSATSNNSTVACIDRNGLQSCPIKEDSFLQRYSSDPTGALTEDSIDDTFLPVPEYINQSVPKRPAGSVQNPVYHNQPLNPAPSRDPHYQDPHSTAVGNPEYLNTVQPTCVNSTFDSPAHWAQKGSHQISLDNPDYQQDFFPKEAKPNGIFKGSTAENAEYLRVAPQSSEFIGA

SMILES | IC50 [1] [nM] | GI50 [2] [nM] | IC50 [3] [nM] | GI50 [4] [nM] | IC50 [5] [nM] | IC50 [6] [nM] | GI50 [7] [nM]
C[C@H]1CCOc2c(cnn2C)-c2nccc(n2)Nc2cc3c(cn2)c(-c2ccc(CN4CCCC4)n2C)nn31 [(140)] | < 10 | < 10 | 100 to 1000 | < 10 | < 10 | < 10 | < 10
CCN(CC)C1CCN(c2cc(F)cc(-c3nn4c5cc(ncc35)Nc3ccnc(n3)-c3cnn(C)c3OCC[C@@H]4C)c2)CC1 [(141)] | < 10 | 10 to 100 | 100 to 1000 | 10 to 100 | < 10 | < 10 | 10 to 100
CCCN1CCN(Cc2cnc(-c3nn4c5cc(ncc35)Nc3ccnc(n3)-c3cnn(C)c3OCC[C@@H]4C)s2)CC1 [(142)] | < 10 | 10 to 100 | 100 to 1000 | < 10 | < 10 | < 10 | 10 to 100
C[C@H]1CCOc2c(cnn2C)-c2nccc(n2)Nc2cc3c(cn2)c(-c2ncc(CN4CCOCC4)s2)nn31 [(143)] | < 10 | 10 to 100 | ≥ 1000 | 10 to 100 | < 10 | 10 to 100 | 10 to 100
C[C@H]1CCOc2c(cnn2C)-c2nccc(n2)Nc2cc3c(cn2)c(-c2cc(CN4CCN(C)CC4)n(C)c2)nn31 [(144)] | < 10 | < 10 | 10 to 100 | < 10 | < 10 | < 10 | < 10
C[C@H]1CCOc2c(cnn2C)-c2nccc(n2)Nc2cc3c(cn2)c(-c2cccc(OCCN4CCOCC4)c2)nn31 [(145), (16S)-11,16-dimethyl-19-[3-(2-morpholinoethoxy)phenyl]-13-oxa-2,6,10,11,17,18,22,25-octazapentacyclo[15.5.2.1^3,7.0^8,12.0^20,24]pentacosa-1(22),3,5,7(25),8(12),9,18,20,23-nonaene] | < 10 | < 10 | 100 to 1000 | < 10 | < 10 | < 10 | 10 to 100
CCn1cc(-c2nn3c4cc(ncc24)Nc2ccnc(n2)-c2cnn(C)c2OCC[C@@H]3C)cc1CN1CCN(C)CC1 [(146)] | < 10 | < 10 | 100 to 1000 | < 10 | < 10 | < 10 | < 10
C[C@H]1CCOc2c(cnn2C)-c2nccc(n2)Nc2cc3c(cn2)c(-c2cc(CN4CCN(C5CC5)CC4)n(C)c2)nn31 [(147)] | < 10 | < 10 | 100 to 1000 | < 10 | < 10 | < 10 | < 10
CCn1cc(-c2nn3c4cc(ncc24)Nc2ccnc(n2)-c2cnn(C)c2OCC[C@@H]3C)cc1CN1CCOCC1 [(148)] | < 10 | < 10 | 100 to 1000 | < 10 | < 10 | < 10 | < 10
CCN(CC)CCOc1cc(-c2nn3c4cc(ncc24)Nc2ccnc(n2)-c2cnn(C)c2OCC[C@@H]3C)ccc1F [(149)] | < 10 | < 10 | 100 to 1000 | < 10 | < 10 | < 10 | 10 to 100
Cc1ccc(-c2nn3c4cc(ncc24)Nc2ccnc(n2)-c2cnn(C)c2OCC[C@@H]3C)n1C [(150)] | < 10 | 10 to 100 | ≥ 1000 | 10 to 100 | < 10 | 10 to 100 | 10 to 100
CC(C)n1cc(-c2nn3c4cc(ncc24)Nc2ccnc(n2)-c2cnn(C)c2OCC[C@@H]3C)cc1CN1CCOCC1 [(151)] | < 10 | < 10 | 100 to 1000 | < 10 | < 10 | < 10 | 10 to 100
CCCn1cc(-c2nn3c4cc(ncc24)Nc2ccnc(n2)-c2cnn(C)c2OCC[C@@H]3C)cc1CN1CCOCC1 [(152)] | < 10 | < 10 | 100 to 1000 | < 10 | < 10 | < 10 | < 10
CCN(CC)CCOc1cc(-c2nn3c4cc(ncc24)Nc2ccnc(n2)-c2cnn(C)c2OCC[C@@H]3C)ccc1Cl [(153)] | < 10 | 10 to 100 | 100 to 1000 | 10 to 100 | < 10 | < 10 | 10 to 100
C[C@H]1CCOc2c(cnn2C)-c2nccc(n2)Nc2cc3c(cn2)c(-c2ccc(F)c(OCCN4CCOCC4)c2)nn31 [(154)] | < 10 | 10 to 100 | 100 to 1000 | < 10 | < 10 | < 10 | 10 to 100
C[C@H]1CCOc2c(cnn2C)-c2nccc(n2)Nc2cc3c(cn2)c(-c2nn(C)cc2CCN(C)C)nn31 [(155)] | < 10 | 10 to 100 | ≥ 1000 | 10 to 100 | < 10 | < 10 | 10 to 100
CCn1cc(-c2nn3c4cc(ncc24)Nc2ccnc(n2)-c2cnn(C)c2OCC[C@@H]3C)cc1CN(C)C [(156)] | < 10 | < 10 | 100 to 1000 | < 10 | < 10 | < 10 | < 10
C[C@H]1CCOc2c(cnn2C)-c2nccc(n2)Nc2cc3c(cn2)c(-c2ncc(CN(C)C)s2)nn31 [(157)] | < 10 | 10 to 100 | 100 to 1000 | < 10 | < 10 | < 10 | 10 to 100
CCN(CC)CCOc1cccc(-c2nn3c4cc(ncc24)Nc2ccnc(n2)-c2cnn(C)c2OCC[C@@H]3C)c1C [(158)] | < 10 | 100 to 1000 | 100 to 1000 | 100 to 1000 | < 10 | 100 to 1000 | 100 to 1000
CCN(CC)CCOc1ccc(C)c(-c2nn3c4cc(ncc24)Nc2ccnc(n2)-c2cnn(C)c2OCC[C@@H]3C)c1 [(159)] | 10 to 100 | 100 to 1000 | 100 to 1000 | 100 to 1000 | 10 to 100 | 100 to 1000 | 100 to 1000
C[C@H]1CCOc2c(cnn2C)-c2nccc(n2)Nc2cc3c(cn2)c(-c2cccc(N4CCC(N5CCOCC5)CC4)c2)nn31 [(160)] | < 10 | < 10 | 100 to 1000 | < 10 | < 10 | < 10 | 10 to 100
CCN1CCc2c(cc(-c3nn4c5cc(ncc35)Nc3ccnc(n3)-c3cnn(C)c3OCC[C@@H]4C)n2C)C1C (stereo partly drawn) [(161)] | < 10 | < 10 | 100 to 1000 | < 10 | < 10 | < 10 | 10 to 100
C[C@H]1CCOc2c(cnn2C)-c2nccc(n2)Nc2cc3c(cn2)c(-c2ccc(CN(C)C)o2)nn31 [(162)] | < 10 | < 10 | 100 to 1000 | < 10 | < 10 | < 10 | < 10
C[C@H]1CCOc2c(cnn2C)-c2nccc(n2)Nc2cc3c(cn2)c(-c2cccc(CCN4CCOCC4)c2)nn31 [(163)] | < 10 | 10 to 100 | 100 to 1000 | < 10 | < 10 | < 10 | 10 to 100

From patent publication US20230148005A1, “MACROCYCLIC COMPOUNDS AND USES THEREOF” (THESEUS PHARMACEUTICALS, INC., priority 2020, published 2023)
